Test results: patent publication US11779546B2, “Disassembly of cholesterol crystals” (IP SCIENCE LIMITED, priority 2018, dated 2023)
“Also recorded” adds a separate entry of the source.

What was measured:
[1] = Disassembly of crystallised cholesterol (Sigma) in ethanol solutions of test substance; format: physicochemical; settings: 100 mg crystallised cholesterol; for ratio of carotenoid to cholesterol at which complete disaggregation of the crystals was observed: 20 ml ethanol, 20-22° C., gentle stirring for a couple of minutes; for effect on size or number of the cholesterol crystals: 20 ml ethanol solutions with different concentrations, room temperature
Experimental: (§1) To 100 mg of crystallised cholesterol (Sigma) 20 ml of ethanol solutions with different concentrations of lycopene were added. As a control, 20 ml of the same ethanol was used but without any lycopene. After gentle stirring for a couple of minutes, under the room temperature of about 20-22° C., recording of the results was made.
as §1, with “lutein” for “lycopene”, “lutein.” for “lycopene.”, “at a” for “under the”
as §1, with “a number of biologically active hydrophobic substances and oils” for “lycopene”, “additives.” for “lycopene.”, “at a” for “under the”, “[…],” for “20-22° C.,”

[2] = Control: atherosclerotic abdominal aorta pieces containing calcium phosphate crystals incubated with lycopene; design: species or system human; settings: lycopene-ethanol-PBS, 13 days, room temperature
Experimental: (§2) This was in terms of their stage of development, with prominently featured cholesterol crystals of similar size, embedded into the atheromatous tissues of the aorta wall. As a control material we collected pieces of the atherosclerotic abdominal aorta containing calcium phosphate crystals.
(§3) Firstly, an ethanol solution 1 μg/ml of lycopene was prepared. It was then diluted by PBS 10 fold. As a control, a solution was made with the same ratio ethanol to PBS but without lycopene. Then pieces of aorta were incubated, in light protected containers at the room temperature of about […] for 13 days.

[3] = Changes of physical properties of cholesterol crystals formed in presence of lycopene; format: physicochemical
Text: In a range of experiments where ratio of cholesterol to lycopene varied, from 1,000 to at least 10,000,000 molecules of the former to 1 molecule of the latter, noticeable changes in the physical properties of crystals were observed.
In all control experiments, cholesterol crystallised into a plate-like crystals, see FIG. 2B and FIG. 2D. Sometimes they could create a thick flat plate of few centimetres across, like the one on the bottom of the glass in the experiment 2, FIG. 2C. However, when lycopene was present in the medium a formation of a new type of crystals was observed.
Under the light and confocal microscopy these difference between two types of cholesterol crystals, in size and shape, are more evident (FIGS. 5A-F and 6A-B).

[4] = Prevention of or interference into the formation of cholesterol crystals (evaporation of ethanol cholesterol solution); format: physicochemical; settings: for effect on rate / formation of cholesterol crystallisation: less than one molecule of lycopene per million molecules of cholesterol
Experimental: A solution of 198 ml of 1 g of cholesterol (Sigma) in 99% ethanol was divided in two equal parts. In one part 1 ml of ethanol containing […] of the dissolved lycopene was added. This provided ratio of lycopene to cholesterol as 1:10^6. Into the other part, the control, 1 ml of the ethanol itself was added. Then both samples were left in the dark room for evaporation under 20-22° C. Recording of the status of the both samples were made at least on a daily or even shorter intervals.

[5] = Disassembly of cholesterol crystals in the arterial wall (pieces of atherosclerotic abdominal aorta incubated 13 days); design: species or system human; settings: 1 μg/ml lycopene in ethanol diluted by PBS 10 fold, room temperature
Text: It was important to confirm whether carotenoids, and lycopene in particular, can affect folding of cholesterol crystals, which are not just synthesized by a manufacturer, but produced naturally, and particularly those, which are developed during pathological process in human. For this purpose, we used pieces of atherosclerotic abdominal aorta, which were obtained during a combined vascular graft and by-pass surgery.
as §2, §3

CC1=C[C@H](O)CC(C)(C)[C@H]1/C=C/C(C)=C/C=C/C(C)=C/C=C/C=C(C)/C=C/C=C(C)/C=C/C1=C(C)C[C@@H](O)CC1(C)C [lutein]
ratio of carotenoid to cholesterol at which complete disaggregation of the crystals was observed [1]: 1 to 20,000

CC(C)=CCC/C(C)=C/C=C/C(C)=C/C=C/C(C)=C/C=C/C=C(C)/C=C/C=C(C)/C=C/C=C(\C)CCC=C(C)C [lycopene]
effect on size or shape of calcium phosphate crystals [2]: did not affect size or shape of calcium phosphate crystals | incorporation into newly formed cholesterol crystal structures [3]: able to incorporate into newly formed crystal structures | type (size and shape) of cholesterol crystals formed ([3]; cholesterol to lycopene 1,000 to at least 10,000,000 : 1, controls plate-like crystals): significantly smaller and in a shape of needle- or narrow tube-like crystals; also recorded: needle-like crystals | effect on rate / formation of cholesterol crystallisation [4]: significantly affect the rate of its crystallisation | effect on rate / formation of cholesterol crystallisation ([4]; listed as Lycopene): prevents or slows down formation of cholesterol crystallisation | day by which crystallisation was completed ([4]; lycopene to cholesterol 1:10^6, ethanol evaporation in the dark, 20-22° C., control: 12th day): ≤ 14 days | day on which floating cholesterol crystals started to appear ([4]; lycopene to cholesterol 1:10^6, ethanol evaporation in the dark, 20-22° C., control: after two days): 6 days | size of the remaining crystalloid structures [5]: reduced by at least two-fold | size of the surrounding cholesterol-rich atheromatous mass of the lesion [5]: reduced by about two-fold | number of crystalloid structures in the lesion at end of incubation ([5]; three structures at start): only two | ratio of carotenoid to cholesterol at which complete disaggregation of the crystals was observed [1]: 1 to 100,000

phosphatidylcholine [reference compound]
effect on size or number of the cholesterol crystals [1]: not able to affect cholesterol crystals

tocopherol [reference compound]
effect on size or number of the cholesterol crystals [1]: ineffective
